Consider 23 compounds from patent US11040981B2, “Pyrrolotriazine compounds and methods of inhibiting TAM kinases” (Syros Pharmaceuticals, Inc., priority 2017, dated 2021).

For one experiment, the target named is T1, FLT3 (Homo sapiens, UniProt P36888).
T1 sequence (P36888 27-993): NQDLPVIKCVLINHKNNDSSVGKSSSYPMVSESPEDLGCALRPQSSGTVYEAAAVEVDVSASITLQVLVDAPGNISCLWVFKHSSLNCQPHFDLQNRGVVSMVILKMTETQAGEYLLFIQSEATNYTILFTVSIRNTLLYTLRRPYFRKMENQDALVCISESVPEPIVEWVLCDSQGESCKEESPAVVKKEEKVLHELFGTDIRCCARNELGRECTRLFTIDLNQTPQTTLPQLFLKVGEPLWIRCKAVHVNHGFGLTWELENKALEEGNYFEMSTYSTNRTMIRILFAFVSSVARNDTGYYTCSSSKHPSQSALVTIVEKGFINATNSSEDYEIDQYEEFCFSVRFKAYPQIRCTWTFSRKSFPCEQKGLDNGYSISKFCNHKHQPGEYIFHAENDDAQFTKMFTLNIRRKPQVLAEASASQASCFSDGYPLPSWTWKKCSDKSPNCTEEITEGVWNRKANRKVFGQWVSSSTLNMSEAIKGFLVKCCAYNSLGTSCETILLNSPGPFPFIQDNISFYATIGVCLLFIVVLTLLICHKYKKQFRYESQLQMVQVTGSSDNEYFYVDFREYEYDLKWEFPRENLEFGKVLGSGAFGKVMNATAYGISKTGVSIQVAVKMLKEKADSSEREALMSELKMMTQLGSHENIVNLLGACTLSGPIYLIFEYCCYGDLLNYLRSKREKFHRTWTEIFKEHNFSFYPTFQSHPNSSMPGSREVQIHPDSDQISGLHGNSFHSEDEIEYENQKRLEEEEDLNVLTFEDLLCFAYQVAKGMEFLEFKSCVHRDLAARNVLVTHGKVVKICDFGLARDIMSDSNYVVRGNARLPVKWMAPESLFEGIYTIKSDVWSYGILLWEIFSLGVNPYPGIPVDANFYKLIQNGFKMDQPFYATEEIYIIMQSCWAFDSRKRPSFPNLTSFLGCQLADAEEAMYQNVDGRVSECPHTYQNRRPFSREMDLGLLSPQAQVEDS
As to the kind of experiment: TR-FRET kinase activity assay, FLT3. It counts as biochemical. Particulars: ATP at Km, 60 minutes. The method, boiled down:
(§1)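 Compounds were tested against each kinase with ATP set at its own Km and a labelled tyrosine peptide substrate. Following one hour at room temperature in buffer containing 10 mM MgCl2 and 1 mM DTT, phosphorylated product was detected by Europium antibody TR-FRET after EDTA quench, and IC50 values were calculated.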
On the technique in general: TR-FRET usually uses a lanthanide donor and a delayed reading to cut background.

The next experiment addresses T2, MERTK (Homo sapiens, UniProt Q12866).
T2 sequence (Q12866 21-999): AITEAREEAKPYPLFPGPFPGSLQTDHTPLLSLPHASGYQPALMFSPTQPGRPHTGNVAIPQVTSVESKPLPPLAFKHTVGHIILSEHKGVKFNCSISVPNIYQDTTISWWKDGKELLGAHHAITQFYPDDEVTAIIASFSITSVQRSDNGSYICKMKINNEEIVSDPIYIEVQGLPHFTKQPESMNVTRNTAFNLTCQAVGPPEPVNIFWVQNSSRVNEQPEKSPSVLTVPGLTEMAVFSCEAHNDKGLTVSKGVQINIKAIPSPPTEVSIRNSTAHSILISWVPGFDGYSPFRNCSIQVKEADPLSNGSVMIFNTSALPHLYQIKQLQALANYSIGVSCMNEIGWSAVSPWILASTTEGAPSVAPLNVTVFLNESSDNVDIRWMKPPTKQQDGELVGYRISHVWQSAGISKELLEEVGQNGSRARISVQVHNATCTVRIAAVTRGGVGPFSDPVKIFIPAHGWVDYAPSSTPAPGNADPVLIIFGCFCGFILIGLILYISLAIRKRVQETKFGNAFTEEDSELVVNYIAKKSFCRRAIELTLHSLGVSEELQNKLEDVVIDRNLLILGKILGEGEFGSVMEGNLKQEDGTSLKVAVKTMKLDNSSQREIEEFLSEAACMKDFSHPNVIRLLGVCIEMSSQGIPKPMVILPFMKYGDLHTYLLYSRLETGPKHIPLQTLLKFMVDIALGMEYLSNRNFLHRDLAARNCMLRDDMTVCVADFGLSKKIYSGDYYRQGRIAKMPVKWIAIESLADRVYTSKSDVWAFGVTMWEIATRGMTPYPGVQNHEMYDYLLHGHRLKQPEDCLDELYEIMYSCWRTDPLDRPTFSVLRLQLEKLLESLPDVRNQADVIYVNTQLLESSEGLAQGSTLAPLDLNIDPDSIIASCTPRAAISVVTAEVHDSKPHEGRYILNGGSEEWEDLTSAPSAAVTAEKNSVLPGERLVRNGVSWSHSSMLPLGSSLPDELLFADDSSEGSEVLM
As to the kind of experiment: TR-FRET kinase activity assay, MERTK. It counts as biochemical. The following applies: for IC50: TR-FRET activity assay, ATP at Km, 60 minutes, read-out: Mer IC50; for FLT3/Mer ratio (FLT3 IC50/Mer IC50): ratio calculated as FLT3 IC50/Mer IC50. The method, boiled down:
as §1

Broadly, the IC50 is the point on the concentration scale where inhibition reaches its midpoint. Consider `COC[C@H](C)Nc1ncc2c(-c3ccnc(N4CCN(C5COC5)CC4)c3)cc([C@H]3CC[C@H](O)CC3)n2n1` [Compound 486], for which the IC50 against FLT3 is 1 to 10 µM. Besides, at MERTK, the IC50 was at most 0.1 µM and the “FLT3/Mer ratio (FLT3 IC50/Mer IC50)” value was “+++ (“+++” represents a ratio of >100)”.
For `COC[C@H](C)Nc1ncc2c(-c3ccnc(N4CCN(S(=O)(=O)C(F)(F)F)CC4)c3)cc([C@H]3CC[C@H](O)CC3)n2n1` [Compound 487], in that order: 1 to 10 µM, at most 0.1 µM and “+++ (“+++” represents a ratio of >100)”.
For `COC[C@H](C)Nc1ncc2c(-c3cnn(C(C)(C)C(=O)N4CCOCC4)c3)cc(C3CCc4[nH]ncc4C3)n2n1` (stereo partly drawn) [Compound 488], in that order: 0.1 to 1 µM, at most 0.1 µM and “+++ (“+++” represents a ratio of >100)”.
For `C[C@@H](CC(F)F)Nc1ncc2c(-c3ccc(S(C)(=O)=O)nc3)cc([C@H]3CC[C@H](O)CC3)n2n1` [Compound 489], in that order: at most 0.1 µM, at most 0.1 µM and “+++ (“+++” represents a ratio of >100)”.
Turning to `COC[C@H](C)Nc1ncc2c(-c3ccnc(Oc4cccnc4)c3)cc([C@H]3CC[C@H](O)CC3)n2n1` [Compound 490], the IC50 against FLT3 lay in the range of 0.1 to 1 µM. Also, at MERTK, the IC50 is at most 0.1 µM and the “FLT3/Mer ratio (FLT3 IC50/Mer IC50)” value is listed as “+++ (“+++” represents a ratio of >100)”.
`COC[C@H](C)Nc1ncc2c(-c3ccnc(N4CCN(S(=O)(=O)C5CC5)CC4)c3)cc([C@H]3CC[C@H](O)CC3)n2n1` [Compound 491]: the IC50 against FLT3 is 0.1 to 1 µM. Also, at MERTK, the IC50 is at most 0.1 µM and the “FLT3/Mer ratio (FLT3 IC50/Mer IC50)” value was “+++ (“+++” represents a ratio of >100)”.
At FLT3, `COC[C@H](C)Nc1ncc2c(C3=C[C@H]4CC[C@@H](C3)N4CC(F)(F)F)cc([C@H]3CC[C@H](O)CC3)n2n1` [Compound 492] showed an IC50 of 1 to 10 µM. At MERTK, the IC50 is at most 0.1 µM and the “FLT3/Mer ratio (FLT3 IC50/Mer IC50)” value is recorded as “+++ (“+++” represents a ratio of >100)”.
For `COC[C@H](C)Nc1ncc2c(-c3ccnc(N4CCC5(COC5)C4)c3)cc([C@H]3CC[C@H](O)CC3)n2n1` [Compound 493], in that order: 0.1 to 1 µM, at most 0.1 µM and “+++ (“+++” represents a ratio of >100)”.
Taken in the same sequence, the figures for `COC[C@H](C)Nc1ncc2c(C3=C[C@H]4CC[C@@H](C3)N4C)cc([C@H]3CC[C@H](O)CC3)n2n1` [Compound 494] were 1 to 10 µM, at most 0.1 µM and “+++ (“+++” represents a ratio of >100)”.
Taken in the same sequence, the figures for `COC[C@H](C)Nc1ncc2c(-c3cnn(C(C)(C)C(=O)N4Cc5nc(C)sc5C4)c3)cc([C@H]3CC[C@H](O)CC3)n2n1` [Compound 495] were 1 to 10 µM, at most 0.1 µM and “+++ (“+++” represents a ratio of >100)”.
As for `COC[C@H](C)Nc1ncc2c(-c3cnn(C(C)(C)C(=O)C4CCc5sc(C)nc5C4)c3)cc([C@H]3CC[C@H](O)CC3)n2n1` (stereo partly drawn) [Compound 496], the IC50 against FLT3 was 1 to 10 µM. Further, at MERTK, the IC50 was at most 0.1 µM and the “FLT3/Mer ratio (FLT3 IC50/Mer IC50)” value is reported as “+++ (“+++” represents a ratio of >100)”.
As for `COC[C@H](C)Nc1ncc2c(CC#N)cc([C@H]3CC[C@H](O)CC3)n2n1` [Compound 497], the IC50 against FLT3 lay within 1 to 10 µM. Besides, on MERTK, the IC50 is at most 0.1 µM and the “FLT3/Mer ratio (FLT3 IC50/Mer IC50)” value is “+++ (“+++” represents a ratio of >100)”.
For `COC[C@H](C)Nc1ncc2c(-c3cccc(C4CCc5nc(C)[nH]c5C4)c3)cc([C@H]3CC[C@H](O)CC3)n2n1` (stereo partly drawn) [Compound 498], in that order: 0.1 to 1 µM, at most 0.1 µM and “+++ (“+++” represents a ratio of >100)”.
On FLT3, `C[C@@H](CC(F)(F)F)Nc1ncc2c(C3=C[C@@H]4CC[C@H](C3)N4)cc([C@H]3CC[C@H](O)CC3)n2n1` [Compound 499] returned an IC50 of 0.1 to 1 µM. For the same compound, on MERTK, the IC50 is at most 0.1 µM and the “FLT3/Mer ratio (FLT3 IC50/Mer IC50)” value is “+++ (“+++” represents a ratio of >100)”.
For `COC[C@H](C)Nc1ncc2c(-c3ccnc(N4CCN(C(=O)C5COC5)CC4)c3)cc([C@H]3CC[C@H](O)CC3)n2n1` [Compound 500], in that order: 0.1 to 1 µM, at most 0.1 µM and “+++ (“+++” represents a ratio of >100)”.
Regarding `COC[C@H](C)Nc1ncc2c(-c3cnn(C4COC4)c3)cc(-c3ccc(O)nc3)n2n1` [Compound 501], on FLT3, the IC50 lay in the range of 1 to 10 µM. Further, at MERTK, the IC50 was at most 0.1 µM; the “FLT3/Mer ratio (FLT3 IC50/Mer IC50)” value is “++ (“++” represents a ratio of between 10 and 100)”.
On FLT3, `COC[C@H](C)Nc1ncc2c(-c3cnn(C4COC4)c3)cc(-c3ccc(OC)cc3)n2n1` [Compound 502] had an IC50 of 1 to 10 µM. At MERTK, the IC50 is at most 0.1 µM; the “FLT3/Mer ratio (FLT3 IC50/Mer IC50)” value was “++ (“++” represents a ratio of between 10 and 100)”.
In turn, `COC[C@H](C)Nc1ncc2c(-c3cnn(C4COC4)c3)cc(C3CCOCC3)n2n1` [Compound 503] returned an IC50 at FLT3 of 1 to 10 µM. Further, on MERTK, the IC50 was at most 0.1 µM and the “FLT3/Mer ratio (FLT3 IC50/Mer IC50)” value was “+++ (“+++” represents a ratio of >100)”.
Taken in the same sequence, the figures for `COC[C@H](C)Nc1ncc2c(-c3ccnc(N4CCN(C(=O)OC5COC5)CC4)c3)cc([C@H]3CC[C@H](O)CC3)n2n1` [Compound 504] were 0.1 to 1 µM, at most 0.1 µM and “+++ (“+++” represents a ratio of >100)”.
At FLT3, `COC[C@H](C)Nc1ncc2c(-c3ccnc(F)c3)cc([C@H]3CC[C@H](O)CC3)n2n1` [Compound 505] registered an IC50 of 1 to 10 µM. Further, at MERTK, the IC50 was at most 0.1 µM and the “FLT3/Mer ratio (FLT3 IC50/Mer IC50)” value was “+++ (“+++” represents a ratio of >100)”.
Taken in the same sequence, the figures for `COC[C@H](C)Nc1ncc2c(-c3cnn(CC(C)(C)N4CCOCC4)c3)cc([C@H]3CC[C@H](O)CC3)n2n1` [Compound 507] were 0.1 to 1 µM, at most 0.1 µM and “+++ (“+++” represents a ratio of >100)”.
For `COC[C@H](C)Nc1ncc2c(-c3conc3C)cc([C@H]3CC[C@H](O)CC3)n2n1` [Compound 508], in that order: 1 to 10 µM, at most 0.1 µM and “+++ (“+++” represents a ratio of >100)”.
For `COC[C@H](C)Nc1ncc2c(-c3ccnc(N4CCc5nc(C)sc5C4)c3)cc([C@H]3CC[C@H](O)CC3)n2n1` [Compound 509], at FLT3, the IC50 is 1 to 10 µM. Further, on MERTK, the IC50 is at most 0.1 µM and the “FLT3/Mer ratio (FLT3 IC50/Mer IC50)” value is recorded as “+++ (“+++” represents a ratio of >100)”.
